# Assay results published in US8076302B2, “Pyrimidine nucleoside derivatives and salts thereof” (aRigen Pharmaceuticals, Inc., priority 2007, dated 2011).
# pEC50: −log10 of the molar value. Structures can show the parent of a compound that is named as a salt. Where two headings read alike, the source gives them in different places.
# Assays:
# VZV = assay: In vitro antiviral test, 50% plaque formation inhibition, anti-VZV activity; assay type: cell-based, varicella-zoster virus (VZV)
# Procedure: (§1) The compounds of the present invention were measured for their in vitro antiviral activity (anti-HSV-1 activity, anti-VZV activity) by using human fetal lung-derived cells in an assay for 50% plaque formation inhibition (Japanese Journal of Chemotherapy, Vol. 38, No. 3, 256-261, 1990).
# HSV-1 = assay: In vitro antiviral test, 50% plaque formation inhibition, anti-HSV-1 activity; assay type: cell-based, herpes simplex virus type 1 (HSV-1)
# Procedure: as §1
# [1] = tested on: herpes simplex virus type 1 (HSV-1) and varicella-zoster virus (VZV); conditions: Patent Document 1; cited from earlier work
# [2] = tested on: HSV-1 infection in mouse skin; assay: In vivo antiviral test, HSV-1 mouse skin infection model (creams); conditions: HSV-1-infected mice, cream; for Incidence rate: affected/total animals
# Procedure: Creams were prepared for the compounds of the present invention according to Formulation Example 2 and tested for their therapeutic effect on HSV-1 infection in mouse skin. Moreover, skin symptoms in the HSV-1-infected mice were scored (Antiviral Research, 17, 133-143, 1992), and the time course of changes in their average lesion scores is shown in FIG. 1.
# According to the ratio indicated above, creams were prepared in a routine manner and provided for Pharmacological Test Example 2.
# uninfected cells = conditions: cited from earlier work
# HSV-1 infection in mice = conditions: compared with acyclovir; Non-patent Document 1; cited from earlier work
# [3] = Human alphaherpesvirus 3, 50% plaque formation inhibition, human fetal lung-derived cells, read-out: Anti-VZV activity (ED50)
# [4] = Human alphaherpesvirus 1, effective concentration required to reduce the number of plaques to 50%, human fetal lung-derived cells, read-out: Anti-HSV-1 activity (ED50)
# [5] = Human alphaherpesvirus 3, read-out: Anti-VZV activity (ED50)
# [6] = Human alphaherpesvirus 1, read-out: Anti-HSV-1 activity (ED50)
smiles,measurement,setting,value
"O=c1[nH]c(=O)n([C@@H]2O[C@H](CO)[C@@H](O)[C@@H]2O)cc1/C=C/Cl [CVAU, 1-β-D-arabinofuranosyl-(E)-5-(2-chlorovinyl)uracil, reference compound]",pEC50,VZV; [3],8.05
same,pEC50,HSV-1; [4],7.12
same,Activity compared with sorivudine,[1],the same activity as sorivudine
same,Incidence rate,[2],6/8
same,Survival rate,"[2]; survivors/total animals, chi-square test vs control",7/8 P < 0.01
"O=C(OCC1OC(n2cc(/C=C/Cl)c(=O)[nH]c2=O)C(O)C1O)C1CCNCC1 [Compound 1, (E)-5-(2-chlorovinyl)-1-[5′-O-(piperidine-4-carboxyl)-β-D-arabinofuranosyl]uracil hydrochloride]",pEC50,VZV; [5],7.34
same,pEC50,HSV-1; [6],6.40
same,Incidence rate,[2]; hydrochloride,4/8
"CC(C)C(N)C(=O)OCC1OC(n2cc(/C=C/Cl)c(=O)[nH]c2=O)C(O)C1O [Compound 2, 1-[5′-0-(L-valine)-β-D-arabinofuranosyl]-(E)-5-(2-chlorovinyl)uracil hydrochloride]",pEC50,VZV; [5],7.72
same,pEC50,HSV-1; [6],6.92
same,Incidence rate,[2],8/8
"O=C(OCC1OC(n2cc(/C=C/Cl)c(=O)[nH]c2=O)C(O)C1O)c1cccnc1 [Compound 3, (E)-5-(2-chlorovinyl)-1-[5′-O-(pyridine-3-carboxyl)-β-D-arabinofuranosyl]uracil hydrochloride]",pEC50,VZV; [3],7.28
same,pEC50,HSV-1; [4],6.31
"O=C(OCC1OC(n2cc(/C=C/Cl)c(=O)[nH]c2=O)C(O)C1O)c1ccncc1 [Compound 4, (E)-5-(2-chlorovinyl)-1-[5′-O-(pyridine-4-carboxyl)-β-D-arabinofuranosyl]uracil hydrochloride]",pEC50,VZV; [3],7.68
same,pEC50,HSV-1; [4],6.89
"CN1CCC(C(=O)OCC2OC(n3cc(/C=C/Cl)c(=O)[nH]c3=O)C(O)C2O)CC1 [Compound 5, (E)-5-(2-chlorovinyl)-1-[5′-O—(N-methylpiperidine-4-carboxyl)-β-D-arabinofuranosyl]uracil hydrochloride]",pEC50,VZV; [3],7.33
same,pEC50,HSV-1; [4],6.25
"O=c1[nH]c(=O)n([C@@H]2O[C@H](CO)[C@@H](O)[C@@H]2O)cc1/C=C/Br [Sorivudine, 1-β-D-arabinofuranosyl-(E)-5-(2-bromovinyl)uracil]",Cytotoxicity,uninfected cells,extremely low
same,Usefulness as external formulation for HSV-1 infection in mice,HSV-1 infection in mice,as useful as acyclovir
